Source: paper PMC8072580, “Predicting Pharmacokinetic Properties of Potential Anticancer Agents via Their Chromatographic Behavior on Different Reversed Phase Materials” (International Journal of Molecular Sciences, 2021)
Where two headings read alike, the source gives them in different places.

Tests used:
[1] = set-up: method as in PMID 31864156; conditions: IAM.PC.DD2 column, buffered acetonitrile; cited from earlier work
[2] = set-up: method as in PMID 31864156; conditions: end-capped ODS column, aqueous acetonitrile; cited from earlier work
[3] = Micellar liquid chromatography (MLC), ODS-2 column, Brij 35 effluent: chromatographic lipophilicity; format: physicochemical; conditions: pH 7.4, ODS-2 column, 25 °C
Excerpt: There are several theories that describe the effect of the concentration of the surfactant in the effluent on the retention of the solute in MLC [23]. The following Foley’s equation is best known in lipophilicity studies:(2) 1/k=1/km+KAM/km[M] where [M] is the total concentration of the surfactant in the mobile phase minus CMC; KAM is the constant that describes solute-micelle binding; and km is the solute retention parameter at the micellar concentration of zero, i.e., when the concentration of the surfactant monomer is equal to CMC. The KAM and km parameters can be evaluated from the slope and intercept of the experimental 1/k vs. [M] relationships.
Equation (2) describes a linear dependence between decreasing retention and increasing micelle concentration. This equation is valid for aqueous solutions of surfactant or mobile phases with the same concentrations of the organic modifier. The micellar retention parameter, log km, is considered analogous to the log kw parameter evaluated in RPLC. According to the information presented above, this parameter is considered to be a lipophilicity descriptor, and Equation (2) is a simple way to indirectly determine the lipophilic properties of compounds. It is postulated that retention in micellar chromatography depends on hydrophobic (lipophilic), electronic, and steric features of the compounds in a similar way as has been noted concerning pharmacokinetic phenomena. The additional similarity results from the fact that the phospholipids, cholesterol, fatty acids, and triglycerides included in the extracellular and intracellular fluids also form micelles with proteins.
(§1) In our investigations, the micellar retention factors were used to calculate the log km parameters using Equation (2) (Table 2). For all of the compounds 1-19, the relationships of 1/k vs. [M] were obtained with very good linearity, confirming that Foley’s equation correctly describes the effect of the concentration of the surfactant in the effluent on the retention of the solute. In our studies, the micellar log km parameters for three pharmacologically active sets of compounds 1-6, 7-14, and 15-19 and the log k factors for solutes 15-19 obtained on IAM and end-capped ODS stationary phases were determined experimentally. All these retention factors, together with the log kw values for compounds 1-14 obtained in our earlier investigations on IAM and end-capped ODS stationary phases, were used as lipophilicity descriptors in the QSARs methodology to predict the pharmacokinetic descriptors of the compounds that were tested.
(§2) Shimadzu Vp (Shimadzu, Izabelin, Polska) liquid chromatographic system was used in HPLC measurements. It was equipped with an LC 10AT pump, SPD 10A UV–Vis detector, SCL 10A system controller, CTO-10 AS chromatographic oven, and Rheodyne injector valve with a 20 μL loop. As the stationary phases, 3 different revered-phase materials were applied: Spherisorb ODS-2 column, 125 × 4 mm i.d., 5 μm (Merck, Lublin, Poland), Regis IAM.PC.DD2 column, 100 × 4.6 mm i.d., 10 μm (Morton Grove, Illinois, USA), and Purosphere RP-18e column, 125 × 4 mm i.d., 5 μm (Merck, Lublin, Poland).
In the MLC technique with an ODS-2 column, buffered Brij 35 mixtures (0.15; 0.125, 0.10, and 0.075 mol/L) with 7% (v/v) addition of isopropanol were used as mobile phases. The buffer was prepared from 0.01 mol/L solutions of Na2HPO4 and citric acid, and the pH 7.4 value was fixed before mixing with an organic modifier. The flow rate was 1 mL/min. Buffered acetonitrile mixtures were used as effluents with the IAM column. Acetonitrile concentration, expressed as a volume fraction, was changed in the range of 0.2–0.5, with the constant step of 0.1. The flow rate was 1.3 mL/min. Acetonitrile concentration was changed in the range of 0.3–0.6 with the RP-18e column, with the constant step of 0.1 and flow rate of 0.1 mL/min. As solutes tested there were used 19 newly designed structurally related compounds. […]

[4] = Immobilized artificial membrane (IAM.PC.DD2) chromatography: log kw,IAM; format: physicochemical; conditions: IAM.PC.DD2 column, buffered acetonitrile 0.2-0.5, 25 °C
Excerpt: as §1, §2
(§3) In the MLC technique with an ODS-2 column, buffered Brij 35 mixtures (0.15; 0.125, 0.10, and 0.075 mol/L) with 7% (v/v) addition of isopropanol were used as mobile phases. The buffer was prepared from 0.01 mol/L solutions of Na2HPO4 and citric acid, and the pH 7.4 value was fixed before mixing with an organic modifier. The flow rate was 1 mL/min. Buffered acetonitrile mixtures were used as effluents with the IAM column. Acetonitrile concentration, expressed as a volume fraction, was changed in the range of 0.2–0.5, with the constant step of 0.1. The flow rate was 1.3 mL/min. Acetonitrile concentration was changed in the range of 0.3–0.6 with the RP-18e column, with the constant step of 0.1 and flow rate of 0.1 mL/min. As solutes tested there were used 19 newly designed structurally related compounds. Samples were dissolved in acetonitrile c.a. 0.005 mg/mL. The compounds were detected under UV light at λmax 254 nm. All measurements were carried out at a constant temperature (25 °C). The dead time values were measured from non-retained compound (e.g., sodium chloride) peaks. All reported k values are the average of at least 3 independent measurements.

[5] = End-capped ODS (RP-18e) column chromatography: log kw,ODS; format: physicochemical; conditions: acetonitrile 0.3-0.6, 25 °C
Excerpt: as §1, §2, §3

human cancer cells = system: human cancer cells; set-up: method as in PMID 31864156, PMID 16545495, PMID 25528370; conditions: cited from earlier work
[6] = 0.075 M Brij 35, 7% isopropanol
[7] = 0.125 M Brij 35, 7% isopropanol

| SMILES | log kw,IAM [1] | log kw,ODS [2] | k (MLC retention factor) [3, 6] | k (MLC retention factor) ([3]; 0.1 M Brij 35, 7% isopropanol) | k (MLC retention factor) [3, 7] | k (MLC retention factor) ([3]; 0.15 M Brij 35, 7% isopropanol) | log kw,IAM [4] | log kw,ODS [5] | antiproliferative effects in cancer cells compared with normal cells (human cancer cells) |
| --- | --- | --- | --- | --- | --- | --- | --- | --- | --- |
| CC(C)c1nnc2n(c1=O)CCN2c1ccccc1 [Compound 1] | 0.76 [19] | 1.59 [19] | 13.73 | 12.03 | 10.47 | 10.53 |  |  |  |
| CC(C)c1nnc2n(c1=O)CCN2c1ccccc1Cl [Compound 3] | 0.65 [19] | 1.42 [19] | 8.98 | 8.18 | 7.46 | 7.20 |  |  |  |
| O=c1c(C(F)(F)F)nnc2n1CCN2c1ccc(Cl)cc1 [Compound 13] | 1.58 [19] | 2.40 [19] | 41.71 | 32.28 | 25.32 | 22.45 |  |  |  |
| CCOC(=O)c1nnc2n(c1=O)CCN2c1ccc(C)cc1 [Compound 16] |  |  | 4.49 | 4.04 | 3.81 | 3.75 | 1.93 | 2.80 |  |
| CCOC(=O)c1nnc2n(c1=O)CCN2c1ccc(Cl)cc1 [Compound 18] |  |  | 9.94 | 8.48 | 7.53 | 7.75 | 1.12 | 1.92 |  |
| CCOC(=O)c1nnc2n(c1=O)CCN2c1ccccc1 [Compound 15] |  |  | 2.09 | 1.90 | 1.81 | 1.84 | 0.48 | 1.21 |  |
| CCOC(=O)c1nnc2n(c1=O)CCN2c1ccc(Cl)c(Cl)c1 [Compound 19] |  |  | 24.39 | 18.98 | 14.97 | 14.81 | 3.36 | 3.24 | clearly higher antiproliferative effects in cancer cells than in normal cells |
| CC(C)c1nnc2n(c1=O)CCN2c1ccc(Cl)c(Cl)c1 [Compound 6] | 1.67 [19] | 2.68 [19] | 60.81 | 46.76 | 34.01 | 29.82 |  |  |  |
| Cc1ccc(N2CCn3c2nnc(C(C)C)c3=O)cc1 [Compound 2] | 1.05 [19] | 2.01 [19] | 25.51 | 21.45 | 18.25 | 17.34 |  |  |  |
| O=c1c(C(F)(F)F)nnc2n1CCN2c1ccc(Cl)c(Cl)c1 [Compound 14] | 2.29 [19] | 2.96 [19] | 59.61 | 44.28 | 32.68 | 28.56 |  |  |  |
| O=c1c(C(F)(F)F)nnc2n1CCN2c1cccc(Cl)c1 [Compound 12] | 1.66 [19] | 2.43 [19] | 36.90 | 29.09 | 22.17 | 19.83 |  |  |  |
| COc1ccccc1N1CCn2c1nnc(C(F)(F)F)c2=O [Compound 10] | 0.67 [19] | 1.65 [19] | 5.89 | 5.40 | 5.04 | 4.79 |  |  | clearly higher antiproliferative effects in cancer cells than in normal cells |
| CC(C)c1nnc2n(c1=O)CCN2c1ccc(Cl)cc1 [Compound 5] | 1.39 [19] | 2.32 [19] | 41.53 | 33.76 | 26.18 | 24.10 |  |  |  |
| CC(C)c1nnc2n(c1=O)CCN2c1cccc(Cl)c1 [Compound 4] | 1.49 [19] | 2.38 [19] | 39.84 | 31.65 | 24.39 | 22.52 |  |  |  |
| Cc1ccc(N2CCn3c2nnc(C(F)(F)F)c3=O)cc1 [Compound 9] | 1.25 [19] | 2.16 [19] | 25.67 | 21.44 | 17.64 | 16.14 |  |  |  |
| O=c1c(C(F)(F)F)nnc2n1CCN2c1ccccc1Cl [Compound 11] | 0.88 [19] | 1.86 [19] | 10.61 | 9.36 | 8.27 | 7.66 |  |  | clearly higher antiproliferative effects in cancer cells than in normal cells |
